According to ChEMBL document CHEMBL1140464, “Synthesis and structure-activity relationship of 4-(2-aryl-cyclopropylamino)-quinoline-3-carbonitriles as EGFR tyrosine kinase inhibitors” (Bioorg Med Chem Lett, 2007):

What was measured:
[1] = target: T1, Epidermal growth factor receptor (Homo sapiens, UniProt P00533); assay: Inhibition of human recombinant EGFR by fluorescence polarization assay
[2] = target: Vascular endothelial growth factor receptor 1 (Homo sapiens, UniProt P17948); assay: Inhibition of Flt1
Sequence of Vascular endothelial growth factor receptor 1 (P17948 whole entry): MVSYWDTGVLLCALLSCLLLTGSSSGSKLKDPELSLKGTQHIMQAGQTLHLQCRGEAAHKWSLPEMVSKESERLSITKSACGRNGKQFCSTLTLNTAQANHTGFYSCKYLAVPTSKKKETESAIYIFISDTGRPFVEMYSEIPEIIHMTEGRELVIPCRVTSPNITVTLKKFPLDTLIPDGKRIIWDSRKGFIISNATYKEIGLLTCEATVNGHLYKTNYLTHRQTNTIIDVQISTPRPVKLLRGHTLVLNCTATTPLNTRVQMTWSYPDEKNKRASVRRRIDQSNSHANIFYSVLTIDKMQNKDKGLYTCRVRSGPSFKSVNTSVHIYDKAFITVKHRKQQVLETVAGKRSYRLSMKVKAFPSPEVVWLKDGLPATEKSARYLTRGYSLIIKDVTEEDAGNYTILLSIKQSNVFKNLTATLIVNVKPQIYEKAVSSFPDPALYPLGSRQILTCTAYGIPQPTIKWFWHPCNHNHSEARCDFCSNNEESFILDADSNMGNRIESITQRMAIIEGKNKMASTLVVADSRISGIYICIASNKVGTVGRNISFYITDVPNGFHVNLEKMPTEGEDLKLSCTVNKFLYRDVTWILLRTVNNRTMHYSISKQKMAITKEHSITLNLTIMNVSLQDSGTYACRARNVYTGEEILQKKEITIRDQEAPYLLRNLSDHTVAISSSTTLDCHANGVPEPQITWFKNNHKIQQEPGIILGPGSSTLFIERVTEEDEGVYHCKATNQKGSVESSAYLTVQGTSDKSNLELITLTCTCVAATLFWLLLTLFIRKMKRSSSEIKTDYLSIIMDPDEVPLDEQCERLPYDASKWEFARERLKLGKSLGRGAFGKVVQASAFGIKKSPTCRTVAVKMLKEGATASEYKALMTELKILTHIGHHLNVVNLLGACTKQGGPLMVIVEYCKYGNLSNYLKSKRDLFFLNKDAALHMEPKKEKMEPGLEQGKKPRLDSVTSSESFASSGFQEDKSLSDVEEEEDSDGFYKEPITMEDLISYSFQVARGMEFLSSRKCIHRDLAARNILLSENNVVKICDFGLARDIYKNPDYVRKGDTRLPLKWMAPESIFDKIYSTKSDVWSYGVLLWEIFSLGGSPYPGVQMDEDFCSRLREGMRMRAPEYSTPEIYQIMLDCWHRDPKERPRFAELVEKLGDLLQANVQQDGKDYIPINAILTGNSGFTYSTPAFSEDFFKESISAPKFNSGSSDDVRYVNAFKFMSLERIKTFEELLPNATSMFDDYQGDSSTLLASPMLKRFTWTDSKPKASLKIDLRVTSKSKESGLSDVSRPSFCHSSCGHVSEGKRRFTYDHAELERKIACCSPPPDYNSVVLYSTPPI

[3] = target: Tyrosine-protein kinase ABL1 (Homo sapiens, UniProt P00519); assay: Inhibition of ABL
[4] = target: Vascular endothelial growth factor receptor 2 (Homo sapiens, UniProt P35968); assay: Inhibition of KDR
Sequence of Vascular endothelial growth factor receptor 2 (P35968 whole entry): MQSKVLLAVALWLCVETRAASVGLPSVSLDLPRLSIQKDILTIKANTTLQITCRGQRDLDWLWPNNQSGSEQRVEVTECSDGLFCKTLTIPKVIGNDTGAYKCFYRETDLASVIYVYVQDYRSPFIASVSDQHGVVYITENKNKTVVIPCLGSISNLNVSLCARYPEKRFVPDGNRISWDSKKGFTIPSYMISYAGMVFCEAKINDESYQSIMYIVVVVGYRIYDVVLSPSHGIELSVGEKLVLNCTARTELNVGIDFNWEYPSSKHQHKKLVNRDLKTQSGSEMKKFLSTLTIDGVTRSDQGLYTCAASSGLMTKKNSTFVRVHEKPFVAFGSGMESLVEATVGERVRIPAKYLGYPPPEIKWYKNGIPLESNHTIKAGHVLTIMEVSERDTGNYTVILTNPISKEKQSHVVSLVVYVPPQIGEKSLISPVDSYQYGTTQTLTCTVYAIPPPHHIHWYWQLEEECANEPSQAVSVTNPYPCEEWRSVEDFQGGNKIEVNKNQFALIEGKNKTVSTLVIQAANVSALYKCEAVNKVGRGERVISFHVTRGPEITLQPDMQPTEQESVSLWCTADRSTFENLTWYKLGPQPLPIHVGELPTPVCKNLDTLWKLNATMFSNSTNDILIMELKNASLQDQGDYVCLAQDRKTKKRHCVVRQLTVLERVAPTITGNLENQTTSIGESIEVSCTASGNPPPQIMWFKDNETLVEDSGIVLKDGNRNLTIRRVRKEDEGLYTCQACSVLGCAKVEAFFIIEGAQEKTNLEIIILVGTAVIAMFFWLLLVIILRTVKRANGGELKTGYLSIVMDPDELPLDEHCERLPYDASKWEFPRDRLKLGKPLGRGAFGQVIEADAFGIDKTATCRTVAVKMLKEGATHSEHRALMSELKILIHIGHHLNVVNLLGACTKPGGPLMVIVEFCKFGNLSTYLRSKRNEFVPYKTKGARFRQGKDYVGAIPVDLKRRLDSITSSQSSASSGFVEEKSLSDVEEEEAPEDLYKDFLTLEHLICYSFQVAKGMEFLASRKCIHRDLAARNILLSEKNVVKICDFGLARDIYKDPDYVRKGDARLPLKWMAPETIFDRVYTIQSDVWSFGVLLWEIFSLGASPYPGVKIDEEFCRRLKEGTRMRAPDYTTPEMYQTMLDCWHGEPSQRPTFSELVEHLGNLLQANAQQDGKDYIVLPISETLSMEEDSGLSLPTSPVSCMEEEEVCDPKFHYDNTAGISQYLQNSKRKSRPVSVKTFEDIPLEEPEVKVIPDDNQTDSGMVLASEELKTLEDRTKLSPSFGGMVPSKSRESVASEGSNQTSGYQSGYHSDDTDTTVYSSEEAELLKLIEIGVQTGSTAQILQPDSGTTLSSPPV

[5] = target: Tyrosine-protein kinase SYK (Homo sapiens, UniProt P43405); assay: Inhibition of SYK
[6] = target: Proto-oncogene tyrosine-protein kinase Src (Homo sapiens, UniProt P12931); assay: Inhibition of SRC
Sequence of Proto-oncogene tyrosine-protein kinase Src (P12931 2-536 limits assumed): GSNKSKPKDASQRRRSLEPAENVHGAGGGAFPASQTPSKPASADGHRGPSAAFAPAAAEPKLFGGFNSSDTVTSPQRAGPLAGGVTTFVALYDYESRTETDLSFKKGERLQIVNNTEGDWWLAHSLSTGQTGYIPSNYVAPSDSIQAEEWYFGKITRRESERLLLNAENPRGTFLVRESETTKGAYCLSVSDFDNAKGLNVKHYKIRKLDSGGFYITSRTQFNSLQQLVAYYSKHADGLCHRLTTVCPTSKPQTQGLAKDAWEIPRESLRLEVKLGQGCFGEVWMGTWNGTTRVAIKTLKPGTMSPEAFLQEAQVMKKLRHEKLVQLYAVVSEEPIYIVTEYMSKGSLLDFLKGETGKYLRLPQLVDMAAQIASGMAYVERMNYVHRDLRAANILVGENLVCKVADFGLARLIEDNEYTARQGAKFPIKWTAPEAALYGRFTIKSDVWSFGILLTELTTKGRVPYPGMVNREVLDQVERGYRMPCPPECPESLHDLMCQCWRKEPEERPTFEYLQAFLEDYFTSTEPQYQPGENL

[7] = target: T1, Epidermal growth factor receptor; assay: Inhibition of human EGFR autophosphorylation in A431 cells

T1 sequence (P00533 whole entry): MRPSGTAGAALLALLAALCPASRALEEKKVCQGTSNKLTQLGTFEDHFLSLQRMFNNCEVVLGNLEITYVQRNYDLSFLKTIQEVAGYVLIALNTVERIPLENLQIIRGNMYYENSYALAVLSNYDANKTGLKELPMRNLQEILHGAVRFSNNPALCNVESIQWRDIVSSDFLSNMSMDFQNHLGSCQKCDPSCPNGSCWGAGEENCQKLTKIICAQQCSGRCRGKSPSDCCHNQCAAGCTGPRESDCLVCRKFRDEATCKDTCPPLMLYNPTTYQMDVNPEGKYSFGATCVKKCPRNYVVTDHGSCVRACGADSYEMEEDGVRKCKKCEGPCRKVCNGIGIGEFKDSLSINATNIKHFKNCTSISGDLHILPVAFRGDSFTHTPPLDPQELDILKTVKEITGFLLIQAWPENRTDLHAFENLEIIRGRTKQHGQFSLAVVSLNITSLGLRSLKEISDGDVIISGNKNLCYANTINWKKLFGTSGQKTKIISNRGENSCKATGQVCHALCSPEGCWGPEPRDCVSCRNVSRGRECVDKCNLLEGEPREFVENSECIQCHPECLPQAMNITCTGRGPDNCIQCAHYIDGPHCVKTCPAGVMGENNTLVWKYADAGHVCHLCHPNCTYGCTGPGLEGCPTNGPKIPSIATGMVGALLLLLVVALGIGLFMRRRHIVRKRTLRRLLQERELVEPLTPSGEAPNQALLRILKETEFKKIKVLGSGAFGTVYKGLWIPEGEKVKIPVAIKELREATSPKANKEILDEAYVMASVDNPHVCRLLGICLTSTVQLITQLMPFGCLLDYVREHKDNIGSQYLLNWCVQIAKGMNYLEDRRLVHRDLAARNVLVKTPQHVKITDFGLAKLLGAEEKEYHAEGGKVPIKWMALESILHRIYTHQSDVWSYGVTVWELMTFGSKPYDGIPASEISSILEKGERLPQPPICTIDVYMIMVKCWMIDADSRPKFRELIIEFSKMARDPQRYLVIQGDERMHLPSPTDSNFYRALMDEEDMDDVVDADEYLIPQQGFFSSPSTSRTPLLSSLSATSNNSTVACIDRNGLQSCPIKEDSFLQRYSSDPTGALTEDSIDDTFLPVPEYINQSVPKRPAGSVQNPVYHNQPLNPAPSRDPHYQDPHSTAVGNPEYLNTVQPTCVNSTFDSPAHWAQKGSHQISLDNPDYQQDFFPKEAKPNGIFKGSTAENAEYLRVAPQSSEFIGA

SMILES	Ki [1] [nM]	Ki [2] [nM]	Ki [3] [nM]	Ki [4] [nM]	Ki [5] [nM]	Ki [6] [nM]	IC50 [7] [nM]
COc1cc2ncc(C#N)c(N[C@@H]3C[C@H]3c3cccc(Br)c3)c2cc1OC	52	–	–	–	–	–	–
N#Cc1cnc2ccc(-c3cccc(CN4CCOCC4)c3)cc2c1N[C@@H]1C[C@H]1c1ccccc1	340	> 10000	> 10000	> 10000	> 10000	280	5260
COc1ccc2c(N[C@@H]3C[C@H]3c3ccccc3)c(C#N)cnc2c1	180	> 10000	> 10000	> 10000	> 10000	170	2580
COc1cc2ncc(C#N)c(N[C@@H]3C[C@H]3c3ccc(Br)cc3)c2cc1OC	220	–	–	–	–	–	–
COc1cc2ncc(C#N)c(N[C@@H]3C[C@H]3c3ccccc3F)c2cc1OC	36	–	–	–	–	–	–
N#Cc1cnc2ccc(-c3ccc(CN4CCOCC4)cc3)cc2c1N[C@@H]1C[C@H]1c1ccccc1	400	> 10000	> 10000	> 10000	> 10000	570	2530
COc1ccc2ncc(C#N)c(N[C@@H]3C[C@H]3c3ccccc3)c2c1	360	> 10000	> 10000	> 10000	> 10000	210	8270
COc1cc2ncc(C#N)c(N[C@@H]3C[C@H]3c3ccccc3)c2cc1OCCN1CCOCC1	64	> 10000	> 10000	150	> 10000	> 10000	405
COc1cc2ncc(C#N)c(N[C@@H]3C[C@H]3c3ccccc3)c2cc1OCCCc1cccnc1	68	1710	1800	650	> 10000	> 10000	68
COc1cc2ncc(C#N)c(N[C@@H]3C[C@H]3c3ccccc3)c2cc1OCCCN1CCOCC1	52	910	1800	560	> 10000	> 10000	–
COc1cc2c(N[C@@H]3C[C@H]3c3ccccc3)c(C#N)cnc2cc1OCCCN1CCOCC1	–	350	200	420	> 10000	45	–
COc1cc2c(N[C@@H]3C[C@H]3c3ccccc3)c(C#N)cnc2cc1OCCCc1cccnc1	220	1900	300	99	140	49	173
COc1cc2ncc(C#N)c(N[C@@H]3C[C@H]3c3ccc(Oc4ccccc4)cc3)c2cc1OC	80	–	–	–	–	–	–
COCCOc1cc2ncc(C#N)c(N[C@@H]3C[C@H]3c3ccccc3)c2cc1OC	60	2900	390	140	160	110	52.8
COc1cc2ncc(C#N)c(N[C@@H]3C[C@H]3c3ccc(Cl)cc3)c2cc1OC	44	–	–	–	–	–	–
COc1cc2c(N[C@@H]3C[C@H]3c3ccccc3)c(C#N)cnc2cc1OCCCN1CCN(C)CC1	3	110	44	300	41	27	5.7
COc1cc2ncc(C#N)c(N[C@@H]3C[C@H]3c3ccccc3)c2cc1OCc1ccccc1	120	> 10000	> 10000	2600	> 10000	330	1610
N#Cc1cnc2ccc(-c3ccc(CN)cc3)cc2c1N[C@@H]1C[C@H]1c1ccccc1	40	1400	770	1500	450	86	2100
COc1cc2c(N[C@@H]3C[C@H]3c3ccccc3)c(C#N)cnc2cc1OC1CCN(C)CC1	360	1500	> 10000	> 10000	> 10000	> 10000	360
N#Cc1cnc2cc(-c3ccc(CN4CCOCC4)cc3)ccc2c1N[C@@H]1C[C@H]1c1ccccc1	80	920	–	170	–	140	234
COc1cc2ncc(C#N)c(N[C@@H]3C[C@H]3c3ccccc3)c2cc1OC	24	1600	950	2100	250	150	90
